The experiment deals with T1, RXFP1 (Homo sapiens, UniProt Q9HBX9).
T1 construct: OVCAR5 cells expressing endogenous RXFP1; endogenous in cells; host or cells: OVCAR5 cells
T1 sequence (Q9HBX9 1-757): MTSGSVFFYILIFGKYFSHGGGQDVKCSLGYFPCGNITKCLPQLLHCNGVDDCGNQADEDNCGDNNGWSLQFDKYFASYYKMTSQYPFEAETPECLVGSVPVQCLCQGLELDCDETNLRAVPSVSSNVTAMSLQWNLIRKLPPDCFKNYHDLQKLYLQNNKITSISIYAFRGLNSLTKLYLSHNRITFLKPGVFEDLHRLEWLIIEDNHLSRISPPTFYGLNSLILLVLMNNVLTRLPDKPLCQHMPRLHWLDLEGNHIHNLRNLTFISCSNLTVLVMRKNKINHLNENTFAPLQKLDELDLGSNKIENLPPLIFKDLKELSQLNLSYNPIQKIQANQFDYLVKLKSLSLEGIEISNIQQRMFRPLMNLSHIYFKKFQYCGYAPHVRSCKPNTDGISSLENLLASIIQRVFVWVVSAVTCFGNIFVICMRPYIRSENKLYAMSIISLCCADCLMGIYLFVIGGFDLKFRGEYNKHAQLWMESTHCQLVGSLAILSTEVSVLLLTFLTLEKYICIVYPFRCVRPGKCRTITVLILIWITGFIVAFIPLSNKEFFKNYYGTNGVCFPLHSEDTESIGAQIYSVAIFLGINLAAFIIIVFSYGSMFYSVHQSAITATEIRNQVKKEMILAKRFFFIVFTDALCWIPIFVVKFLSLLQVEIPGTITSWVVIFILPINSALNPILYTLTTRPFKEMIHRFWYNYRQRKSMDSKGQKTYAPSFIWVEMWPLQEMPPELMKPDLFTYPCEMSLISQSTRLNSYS
In words: OVCAR5 cAMP assay (HTRF), RXFP1 agonist activity. Format: cell-based. The conditions noted are these: for EC50: OVCAR5 cells, cAMP HTRF, read-out: EC50 (nM), OVCAR 5 cells (cAMP); for Emax: OVCAR-5, maximal cAMP relative to H2-relaxin maximum (100%), read-out: EMax, OVCAR 5 cells (cAMP). In a few lines:
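cAMP accumulation readout: after 1 mM IBMX for 40 min, endogenous-RXFP1 OVCAR5 cells got rising peptide concentrations without FCS, 30 min, 37° C, then lysis with HTRF cAMP reagents. Nonlinear regression gave EC50; Emax expressed relative to H2-relaxin maximum, same occasion.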
(In general: Cyclic AMP is a second messenger, typically raised through Gs and lowered through Gi signalling.)

*1 amine or outer side, *2 acyl side, *3 side chain or, on linkers, in order; H or OH if unused. Where a SMILES comes first, the peptide text is derived from it. Side-chain parts run from the residue outwards. [ ]: non-standard residue; d: D form. The star is where a group is joined. γGlu = O=C(O)[C@H](CCC(=O)[*:2])N[*:1]; Arg(Me) = CNC(=N)NCCC[C@H](N)C(=O)O; Stearoyl = CCCCCCCCCCCCCCCCCC(=O)*; Palmitoyl = CCCCCCCCCCCCCCCC(=O)*; αMeK = C[C@](N)(CCCCN)C(=O)O; Nle = CCCC[C@H](N)C(=O)O; AEEA = NCCOCCOCC(=O)O; Aib = CC(C)(N)C(=O)O

`CCCCCCCCCCCCCCCCCC(=O)N[C@@H](CCC(=O)N[C@@H](CCC(=O)N[C@@H](CCC(=O)N[C@@H](CCC(=O)NCCCC[C@H](NC(=O)COCCOCCNC(=O)COCCOCCNC(=O)COCCOCCNC(=O)COCCOCCNC(=O)[C@H](CCCCN)NC(=O)[C@H](CCCCN)NC(=O)[C@H](CCCNC(=N)N)NC(=O)C(C)(C)NC(=O)[C@H](CO)NC(=O)[C@H](Cc1c[nH]c2ccccc12)NC(=O)[C@@H](NC(=O)[C@H](CO)NC(=O)[C@H](CCCC)NC(=O)CNC(=O)[C@H](CCC(=O)O)NC(=O)C(C)(C)NC(=O)C(C)(C)NC(=O)[C@@H](NC(=O)[C@H](CCCCNC(C)=O)NC(=O)[C@H](C)NC(=O)[C@H](CCCNC(=N)N)NC(=O)[C@@H](NC(=O)[C@H](CCCCN)NC(=O)[C@H](CCC(=O)O)NC(=O)[C@H](CCCNC(=N)N)NC(=O)CNC(=O)[C@H](CCC(=O)O)NC(=O)[C@H](CC(C)C)NC(C)=O)C(C)C)[C@@H](C)CC)[C@@H](C)O)C(N)=O)C(=O)O)C(=O)O)C(=O)O)C(=O)O` [compound 15] (Ac-LEGREKVRAK(Ac)I[Aib][Aib]EG[Nle]STWS[Aib]RKK[AEEA][AEEA][AEEA][AEEA]K([γGlu-γGlu-γGlu-γGlu-Stearoyl])-NH2): the EC50 (commonly the concentration that produces a half-maximal response) was determined as 0.32 nM and the Emax (commonly the size of the effect at its maximum, as opposed to the concentration needed) amounted to 92%.
As for `CCCCCCCCCCCCCCCCCC(=O)N[C@@H](CCC(=O)N[C@@H](CCC(=O)N[C@@H](CCC(=O)NCCOCCOCC(=O)NCCOCCOCC(=O)NCCOCCOCC(=O)NCCOCCOCC(=O)NCCCC[C@H](NC(=O)[C@H](CCCCN)NC(=O)[C@H](CCCCN)NC(=O)[C@H](CCCNC(=N)N)NC(=O)C(C)(C)NC(=O)[C@H](CO)NC(=O)[C@H](Cc1c[nH]c2ccccc12)NC(=O)[C@@H](NC(=O)[C@H](CO)NC(=O)[C@H](CCCC)NC(=O)CNC(=O)[C@H](CCC(=O)O)NC(=O)C(C)(C)NC(=O)C(C)(C)NC(=O)[C@@H](NC(=O)[C@H](CCC(N)=O)NC(=O)[C@H](C)NC(=O)[C@H](CCCNC(=N)N)NC(=O)[C@@H](NC(=O)[C@H](CCCCN)NC(=O)[C@H](CCC(=O)O)NC(=O)[C@H](CCCNC(=N)N)NC(=O)CNC(=O)[C@H](CCC(=O)O)NC(=O)[C@H](CC(C)C)NC(C)=O)C(C)C)[C@@H](C)CC)[C@@H](C)O)C(N)=O)C(=O)O)C(=O)O)C(=O)O` [compound 92] (Ac-LEGREKVRAQI[Aib][Aib]EG[Nle]STWS[Aib]RKKK([AEEA-AEEA-AEEA-AEEA-γGlu-γGlu-γGlu-Stearoyl])-NH2), the EC50 was 0.26 nM and the Emax was 82%.
As to `CCCCCCCCCCCCCCCC(=O)N[C@@H](CCC(=O)N[C@@H](CCC(=O)NCCOCCOCC(=O)NCCOCCOCC(=O)NCCCC[C@H](NC(=O)[C@H](CCCCN)NC(=O)[C@H](CCCNC(=N)N)NC(=O)C(C)(C)NC(=O)[C@H](CO)NC(=O)[C@H](Cc1c[nH]c2ccccc12)NC(=O)[C@@H](NC(=O)[C@H](CO)NC(=O)[C@H](CCCC)NC(=O)CNC(=O)[C@H](CCC(=O)O)NC(=O)C(C)(C)NC(=O)C(C)(C)NC(=O)[C@@H](NC(=O)[C@H](C)NC(=O)[C@H](C)NC(=O)[C@H](CCCNC(=N)N)NC(=O)[C@@H](NC(=O)[C@H](CCCCN)NC(=O)[C@H](CCC(=O)O)NC(=O)[C@H](CCCNC(=N)N)NC(=O)CNC(=O)[C@H](CCC(=O)O)NC(=O)[C@H](CC(C)C)NC(=O)[C@H](CCC(=O)O)NC(C)=O)C(C)C)[C@@H](C)CC)[C@@H](C)O)C(N)=O)C(=O)O)C(=O)O` [compound 57] (Ac-ELEGREKVRAAI[Aib][Aib]EG[Nle]STWS[Aib]RKK([AEEA-AEEA-γGlu-γGlu-Palmitoyl])-NH2), the concentration for a half-maximal effect (EC50) was found to be 4.4 nM and the maximal effect (Emax) is 93%.
Turning to `CCCCCCCCCCCCCCCC(=O)N[C@@H](CCC(=O)NCCCC[C@H](NC(=O)CC[C@H](NC(=O)CC[C@H](NC(=O)CC[C@H](NC(=O)COCCOCCNC(=O)COCCOCCNC(=O)COCCOCCNC(=O)COCCOCCNC(=O)[C@H](CCCCNC(C)=O)NC(=O)[C@H](C)NC(=O)[C@H](CCCNC(=N)NC)NC(=O)[C@](C)(CCCCN)NC(=O)[C@H](CO)NC(=O)[C@H](Cc1ccccc1)NC(=O)[C@@H](NC(=O)[C@H](CO)NC(=O)[C@H](CCCC)NC(=O)CNC(=O)[C@H](CCC(=O)O)NC(=O)C(C)(C)NC(=O)C(C)(C)NC(=O)[C@@H](NC(=O)[C@H](CCCCNC(C)=O)NC(=O)[C@H](C)NC(=O)[C@H](CCCNC(=N)N)NC(=O)[C@@H](NC(=O)[C@H](CCCCN)NC(=O)[C@H](CCC(=O)O)NC(=O)[C@H](CCCNC(=N)N)NC(=O)CNC(=O)[C@H](CCC(=O)O)NC(=O)[C@H](CC(C)C)NC(C)=O)C(C)C)[C@@H](C)CC)[C@@H](C)O)C(=O)O)C(=O)O)C(=O)O)C(N)=O)C(=O)O` [compound 151] (Ac-LEGREKVRAK(Ac)I[Aib][Aib]EG[Nle]STFS[αMeK][Arg(Me)]AK(Ac)[AEEA][AEEA][AEEA][AEEA][γGlu][γGlu][γGlu]K([γGlu-Palmitoyl])-NH2), the EC50 worked out at 0.14 nM and the maximal response (Emax) was 90%.
In the case of `CCCCCCCCCCCCCCCC(=O)N[C@@H](CCC(=O)N[C@@H](CCC(=O)N[C@@H](CCC(=O)NCCOCCOCC(=O)NCCOCCOCC(=O)NCCOCCOCC(=O)NCCCC[C@H](NC(=O)[C@H](CCCCNC(C)=O)NC(=O)[C@H](CCCCN)NC(=O)[C@H](CCCNC(=N)N)NC(=O)C(C)(C)NC(=O)[C@H](CO)NC(=O)[C@H](Cc1ccc(O)cc1)NC(=O)[C@@H](NC(=O)[C@H](CO)NC(=O)[C@H](CCC(N)=O)NC(=O)CNC(=O)[C@H](CCC(=O)O)NC(=O)C(C)(C)NC(=O)C(C)(C)NC(=O)[C@@H](NC(=O)[C@H](CCCCNC(C)=O)NC(=O)[C@H](C)NC(=O)[C@H](CCCNC(=N)N)NC(=O)[C@@H](NC(=O)[C@H](CCCCN)NC(=O)[C@H](CCC(=O)O)NC(=O)[C@H](CCCNC(=N)N)NC(=O)CNC(=O)[C@H](CCC(=O)O)NC(=O)[C@H](CC(C)C)NC(C)=O)C(C)C)[C@@H](C)CC)[C@@H](C)O)C(N)=O)C(=O)O)C(=O)O)C(=O)O` [compound 44] (Ac-LEGREKVRAK(Ac)I[Aib][Aib]EGQSTYS[Aib]RKK(Ac)K([AEEA-AEEA-AEEA-γGlu-γGlu-γGlu-Palmitoyl])-NH2), the Emax came to 75%.
Consider `CCCCCCCCCCCCCCCCCC(=O)N[C@@H](CCC(=O)N[C@@H](CCC(=O)N[C@@H](CCC(=O)NCCOCCOCC(=O)NCCOCCOCC(=O)NCCCC[C@H](NC(=O)[C@H](CCCCN)NC(=O)[C@H](CCCNC(=N)N)NC(=O)C(C)(C)NC(=O)[C@H](CO)NC(=O)[C@H](Cc1c[nH]c2ccccc12)NC(=O)[C@@H](NC(=O)[C@H](CO)NC(=O)[C@H](CCCC)NC(=O)CNC(=O)[C@H](CCC(=O)O)NC(=O)C(C)(C)NC(=O)C(C)(C)NC(=O)[C@@H](NC(=O)[C@H](CCC(N)=O)NC(=O)[C@H](C)NC(=O)[C@H](CCCNC(=N)N)NC(=O)[C@@H](NC(=O)[C@H](CCCCN)NC(=O)[C@H](CCC(=O)O)NC(=O)[C@H](CCCNC(=N)N)NC(=O)CNC(=O)[C@H](CCC(=O)O)NC(=O)[C@H](CC(C)C)NC(C)=O)C(C)C)[C@@H](C)CC)[C@@H](C)O)C(N)=O)C(=O)O)C(=O)O)C(=O)O` [compound 67] (Ac-LEGREKVRAQI[Aib][Aib]EG[Nle]STWS[Aib]RKK([AEEA-AEEA-γGlu-γGlu-γGlu-Stearoyl])-NH2), for which the Emax worked out at 89%.
In the case of `CCCCCCCCCCCCCCCC(=O)N[C@@H](CCC(=O)N[C@@H](CCC(=O)NCCCC[C@H](NC(=O)CC[C@H](NC(=O)CC[C@H](NC(=O)COCCOCCNC(=O)COCCOCCNC(=O)COCCOCCNC(=O)COCCOCCNC(=O)[C@H](CCCCNC(C)=O)NC(=O)[C@H](CCCCN)NC(=O)[C@H](CCCNC(=N)N)NC(=O)[C@](C)(CCCCN)NC(=O)[C@H](CO)NC(=O)[C@H](Cc1ccccc1)NC(=O)[C@@H](NC(=O)[C@H](CO)NC(=O)[C@H](CCCC)NC(=O)CNC(=O)[C@H](CCC(=O)O)NC(=O)C(C)(C)NC(=O)C(C)(C)NC(=O)[C@@H](NC(=O)[C@H](CCCCNC(C)=O)NC(=O)[C@H](C)NC(=O)[C@H](CCCNC(=N)N)NC(=O)[C@@H](NC(=O)[C@H](CCCCN)NC(=O)[C@H](CCC(=O)O)NC(=O)[C@H](CCCNC(=N)N)NC(=O)CNC(=O)[C@H](CCC(=O)O)NC(=O)[C@H](CC(C)C)NC(C)=O)C(C)C)[C@@H](C)CC)[C@@H](C)O)C(=O)O)C(=O)O)C(N)=O)C(=O)O)C(=O)O` [compound 159] (Ac-LEGREKVRAK(Ac)I[Aib][Aib]EG[Nle]STFS[αMeK]RKK(Ac)[AEEA][AEEA][AEEA][AEEA][γGlu][γGlu]K([γGlu-γGlu-Palmitoyl])-NH2), the 50% effective concentration (EC50) is 0.02 nM and the maximal response (Emax) came out at 88%.

These data come from US10988523B2, “Modified lipidated Relaxin B chain peptides and their therapeutic use” (Sanofi, priority 2018, dated 2021).
